Results as given in BindingDB's records for doi:10.1016/s0960-894x(00)00312-7 (Signal Pharmaceuticals, 2000).

What follows are compounds tested against Protein c-Fos/Transcription factor Jun (Homo sapiens, UniProt P05412+P01100) (assay: Inhibition of AP-1 (activator protein-1) mediated transcriptional activation in Jurkat T-cells).
Chain of Protein c-Fos/Transcription factor Jun (P05412 whole entry): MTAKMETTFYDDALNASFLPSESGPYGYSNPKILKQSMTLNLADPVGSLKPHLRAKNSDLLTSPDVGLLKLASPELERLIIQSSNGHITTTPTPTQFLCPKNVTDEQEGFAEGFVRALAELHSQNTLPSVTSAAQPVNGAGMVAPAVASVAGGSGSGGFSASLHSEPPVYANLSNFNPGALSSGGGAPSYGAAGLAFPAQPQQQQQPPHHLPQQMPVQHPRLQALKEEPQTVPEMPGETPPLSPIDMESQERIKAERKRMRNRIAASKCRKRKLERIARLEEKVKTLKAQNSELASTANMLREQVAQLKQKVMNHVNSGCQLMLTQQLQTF
Chain of Protein c-Fos/Transcription factor Jun (P01100 whole entry): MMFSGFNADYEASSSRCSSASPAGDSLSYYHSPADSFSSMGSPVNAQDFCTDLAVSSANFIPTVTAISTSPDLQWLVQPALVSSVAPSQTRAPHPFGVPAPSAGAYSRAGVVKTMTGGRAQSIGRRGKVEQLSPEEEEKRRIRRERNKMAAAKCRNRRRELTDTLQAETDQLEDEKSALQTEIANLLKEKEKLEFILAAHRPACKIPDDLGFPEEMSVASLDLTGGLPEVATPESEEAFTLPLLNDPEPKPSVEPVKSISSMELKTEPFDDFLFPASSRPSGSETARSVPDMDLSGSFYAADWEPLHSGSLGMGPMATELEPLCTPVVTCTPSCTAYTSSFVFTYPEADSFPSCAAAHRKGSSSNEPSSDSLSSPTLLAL

| SMILES | IC50 [nM] |
| --- | --- |
| CCOC(=O)c1cnc(-c2ccccc2)nc1N(C(C)=O)N1C(=O)C=C(C)C1=O [4-[Acetyl-(3-methyl-2,5-dioxo-2,5-dihydro-pyrrol-1-yl)-amino]-2-phenyl-pyrimidine-5-carboxylic acid ethyl ester] | 4000 |
| CCOC(=O)c1cnc(-c2ccc(C(F)(F)F)cc2)nc1NN1C(=O)C=C(C)C1=O [4-(3-Methyl-2,5-dioxo-2,5-dihydro-pyrrol-1-ylamino)-2-(4-trifluoromethyl-phenyl)-pyrimidine-5-carboxylic acid ethyl ester] | 400 |
| CC1=CC(=O)N(Nc2nc(-c3cccs3)ncc2-c2nnc(C)o2)C1=O [3-methyl-1-(5-(5-methyl-1,3,4-oxadiazol-2-yl)-2-(thiophen-2-yl)pyrimidin-4-ylamino)-1H-pyrrole-2,5-dione] | 300 |

The remaining compounds from weak to strong by IC50, led by results:

| IC50 [nM] | SMILES |
| --- | --- |
| 1000 | CCOC(=O)c1cnc(C2CC2)nc1NN1C(=O)C=C(C)C1=O [2-Cyclopropyl-4-(3-methyl-2,5-dioxo-2,5-dihydro-pyrrol-1-ylamino)-pyrimidine-5-carboxylic acid ethyl ester] |
| 1000 | CCOC(=O)c1cnc(C(F)(F)F)nc1NN1C(=O)C=C(C)C1=O [4-(3-Methyl-2,5-dioxo-2,5-dihydro-pyrrol-1-ylamino)-2-trifluoromethyl-pyrimidine-5-carboxylic acid ethyl ester] |
